# Data as given in patent publication US9675823B2 (Colgate-Palmolive Company, priority 2012, dated 2017).
# What was measured:
# [1] = Precipitation time upon mixing the cysteine solution and the ZLC solution; assay type: physicochemical
# [2] = pH of the mixture or of the acidified cysteine solution; conditions: 0.05 g of cysteine in 1 mL of 0.0001 M HCl
"precipitation upon mixing ([1]; 0.05 g amino acid in 1 mL 0.0001M HCl, 4.95 g ZLC stock solution with no glycerol)",effect on precipitation time of ZLC ([1]; sulfur-containing amino acids),pH of solution 1 [2],SMILES
No precipitation occurred,no effect,,CSCC[C@H](N)C(=O)O [methionine]
,,5.13,N[C@@H](CS)C(=O)O [cysteine]
